ChEMBL document CHEMBL4823255, “Discovery of novel potent migrastatic Thiazolo[5,4-b]pyridines targeting Lysyl-tRNA synthetase (KRS) for treatment of Cancer metastasis” (Eur J Med Chem, 2021)
One block for each molecule: values may come before it. Activity calls are given as the source filed them. The rule behind the calls is not given here.

Experiments:
MDA-MB-231 [1] = assay: Antimigratory activity against tetracycline-induced KRS T52D mutant overexpressing human MDA-MB-231 cells assessed as inhibition of cell migration at 3 uM measured after 4 hrs by flourescence plate reader method; assay type: functional
CYP2C19 = CYP2C19 (Homo sapiens, UniProt P33261); assay: Inhibition of CYP2C19 (unknown origin) assessed as enzyme residual activity at 10 uM; assay type: ADME; conditions: read-out: Activity
CYP2C9 = CYP2C9 (Homo sapiens, UniProt P11712); assay: Inhibition of CYP2C9 (unknown origin) assessed as enzyme residual activity at 10 uM; assay type: ADME; conditions: read-out: Activity
CYP1A2 = target: T1, CYP1A2 (Homo sapiens, UniProt P05177); assay: Inhibition of CYP1A2 (unknown origin) assessed as enzyme residual activity at 10 uM; assay type: ADME; conditions: read-out: Activity
T1 sequence (P05177 whole entry): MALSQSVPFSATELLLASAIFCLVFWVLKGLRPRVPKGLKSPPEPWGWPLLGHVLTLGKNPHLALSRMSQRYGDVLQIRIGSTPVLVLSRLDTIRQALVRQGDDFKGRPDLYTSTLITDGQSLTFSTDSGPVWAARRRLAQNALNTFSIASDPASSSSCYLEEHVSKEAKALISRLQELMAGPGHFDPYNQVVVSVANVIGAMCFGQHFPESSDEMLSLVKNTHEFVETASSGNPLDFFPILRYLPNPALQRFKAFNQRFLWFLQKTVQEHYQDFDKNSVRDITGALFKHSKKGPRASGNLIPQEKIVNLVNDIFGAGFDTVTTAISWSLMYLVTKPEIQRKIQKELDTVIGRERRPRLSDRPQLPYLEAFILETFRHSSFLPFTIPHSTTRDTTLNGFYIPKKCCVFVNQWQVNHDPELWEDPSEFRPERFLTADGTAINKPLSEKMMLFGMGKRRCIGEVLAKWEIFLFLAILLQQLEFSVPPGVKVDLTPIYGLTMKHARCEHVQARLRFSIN

CYP3A4 = CYP3A4 (Homo sapiens, UniProt P08684); assay: Inhibition of CYP3A4 (unknown origin) assessed as enzyme residual activity at 10 uM; assay type: ADME; conditions: read-out: Activity
Lysine--tRNA ligase [2] = target: T2, Lysine--tRNA ligase (Homo sapiens, UniProt Q15046); assay: Binding affinity to human N-terminal His6-tagged 15N-labelled KRS (1 to 207 residues) expressed in Escherichia coli BL21(DE3) measured by flourescence based binding titration assay
Target sequence in this assay (Q15046 whole entry, the tested form may be a part): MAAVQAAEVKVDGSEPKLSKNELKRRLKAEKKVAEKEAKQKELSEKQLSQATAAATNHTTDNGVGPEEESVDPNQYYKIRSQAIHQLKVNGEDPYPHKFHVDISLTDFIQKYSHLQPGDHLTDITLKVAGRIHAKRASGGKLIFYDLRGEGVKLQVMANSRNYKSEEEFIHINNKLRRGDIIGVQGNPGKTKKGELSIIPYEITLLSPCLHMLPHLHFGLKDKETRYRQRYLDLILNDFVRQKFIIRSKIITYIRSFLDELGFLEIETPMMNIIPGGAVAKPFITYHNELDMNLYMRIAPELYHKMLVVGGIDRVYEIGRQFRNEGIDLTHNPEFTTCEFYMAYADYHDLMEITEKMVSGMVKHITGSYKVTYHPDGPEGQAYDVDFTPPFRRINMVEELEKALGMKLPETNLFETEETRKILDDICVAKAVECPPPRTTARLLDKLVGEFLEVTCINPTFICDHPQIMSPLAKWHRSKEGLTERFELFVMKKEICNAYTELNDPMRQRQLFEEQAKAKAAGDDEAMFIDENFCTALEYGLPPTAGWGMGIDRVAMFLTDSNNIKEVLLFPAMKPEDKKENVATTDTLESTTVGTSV

NCI-H226 = assay: Antimigratory activity against human NCI-H226 cells assessed as inhibition of cell migration measured after 12 hrs by Transwell assay; assay type: functional, cell-based; conditions: NCI-H226, 12 h
Lysine--tRNA ligase [3] = target: T2, Lysine--tRNA ligase; assay: Binding affinity to human N-terminal His6-tagged 15N-labelled KRS (1 to 207 residues) expressed in Escherichia coli BL21(DE3) at 0.4 mM by 1H-15N TROSY NMR analysis
Target sequence in this assay (Q15046 2-597 limits assumed): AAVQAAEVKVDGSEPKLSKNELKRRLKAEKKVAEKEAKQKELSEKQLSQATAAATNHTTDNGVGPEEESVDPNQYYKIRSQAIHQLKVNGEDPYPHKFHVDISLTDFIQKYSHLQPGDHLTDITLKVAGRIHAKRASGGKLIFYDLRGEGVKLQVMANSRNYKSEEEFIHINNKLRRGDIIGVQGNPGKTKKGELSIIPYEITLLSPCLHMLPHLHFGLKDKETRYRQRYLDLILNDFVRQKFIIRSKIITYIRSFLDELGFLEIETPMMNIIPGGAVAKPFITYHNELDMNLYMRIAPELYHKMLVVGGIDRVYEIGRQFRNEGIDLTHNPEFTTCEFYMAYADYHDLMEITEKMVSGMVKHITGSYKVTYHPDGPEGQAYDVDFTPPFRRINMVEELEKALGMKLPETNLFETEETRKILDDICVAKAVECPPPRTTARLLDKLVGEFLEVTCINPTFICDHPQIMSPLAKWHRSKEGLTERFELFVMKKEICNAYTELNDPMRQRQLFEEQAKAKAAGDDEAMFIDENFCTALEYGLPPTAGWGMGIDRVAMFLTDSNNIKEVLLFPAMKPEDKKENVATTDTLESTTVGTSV

[4] = Cmax in mouse at 5 mg/kg, po measured after 24 hrs; assay type: ADME, organism-based; design: route oral, dose 5 mg/kg, time 24 hrs; conditions: in vivo
[5] = AUC(infinity) in mouse at 5 mg/kg, po measured after 24 hrs; assay type: ADME, organism-based; design: route oral, dose 5 mg/kg, time 24 hrs; conditions: in vivo
[6] = AUC(infinity) in mouse at 5 mg/kg, iv measured after 24 hrs; assay type: ADME, organism-based; design: route intravenous, time 24 hrs, dose 5 mg/kg; conditions: in vivo
4T1 = assay: Anti-metastasis activity in mouse 4T1 cells xenografted in BALB/cAnCr mouse at 100 mg/kg, po administered for 16 days; assay type: functional, organism-based; conditions: time 16.0 day
CYP2D6 = CYP2D6 (Homo sapiens, UniProt P10635); assay: Inhibition of CYP2D6 (unknown origin) assessed as enzyme residual activity at 10 uM; assay type: ADME; conditions: read-out: Activity
[7] = Volume of distribution at steady state in mouse at 5 mg/kg, iv measured after 24 hrs; assay type: ADME, organism-based; conditions: in vivo, read-out: Vdss
[8] = Half life in mouse at 5 mg/kg, po measured after 24 hrs; assay type: ADME, organism-based; conditions: in vivo
[9] = Clearance in mouse at 5 mg/kg, iv measured after 24 hrs; assay type: ADME, organism-based; conditions: in vivo
[10] = AUC(t) in mouse at 5 mg/kg, po measured after 24 hrs; assay type: ADME, organism-based; design: route oral, time 24 hrs, dose 5 mg/kg; conditions: in vivo
[11] = AUC(t) in mouse at 5 mg/kg, iv measured after 24 hrs; assay type: ADME, organism-based; design: route intravenous, dose 5 mg/kg, time 24 hrs; conditions: in vivo
[12] = Permeability of the compound at 50 uM measured after 4 hrs by PAMPA assay; assay type: ADME; conditions: read-out: permeability
[13] = Oral bioavailability in mouse at 5 mg/kg measured after 24 hrs; assay type: ADME, organism-based; conditions: in vivo
[14] = Half life in mouse at 5 mg/kg, iv measured after 24 hrs; assay type: ADME, organism-based; conditions: in vivo
[15] = Metabolic stability in rat liver microsomes assessed as parent compound remaining measured after 30 mins; assay type: ADME, Microsome; conditions: read-out: Stabilty
MDA-MB-231 [16] = assay: Antimigratory activity against tetracycline-induced KRS T52D mutant overexpressing human MDA-MB-231 cells assessed as inhibition of cell migration measured after 4 hrs by flourescence plate reader method; assay type: functional, cell-based; conditions: MDA-MB-231, 4 h
[17] = Toxicity in Balb/cAnCr mouse xenografted with mouse 4T1 cells assessed as change in body weight at 100 mg/kg, po administered for 16 days; assay type: organism-based; conditions: in vivo, 384 h, time 16 day
[18] = Metabolic stability in mouse liver microsomes assessed as parent compound remaining measured after 30 mins; assay type: ADME, Microsome; conditions: read-out: Stabilty
[19] = Metabolic stability in dog liver microsomes assessed as parent compound remaining measured after 30 mins; assay type: ADME, Canis lupus familiaris, Microsome; conditions: read-out: Stabilty
[20] = Tmax in mouse at 5 mg/kg, po measured after 24 hrs; assay type: ADME, organism-based; conditions: in vivo
[21] = Metabolic stability in human liver microsomes assessed as parent compound remaining measured after 30 mins; assay type: ADME, Microsome; conditions: read-out: Stabilty

CYP3A4, sequence (P08684 whole entry, the tested form may be a part): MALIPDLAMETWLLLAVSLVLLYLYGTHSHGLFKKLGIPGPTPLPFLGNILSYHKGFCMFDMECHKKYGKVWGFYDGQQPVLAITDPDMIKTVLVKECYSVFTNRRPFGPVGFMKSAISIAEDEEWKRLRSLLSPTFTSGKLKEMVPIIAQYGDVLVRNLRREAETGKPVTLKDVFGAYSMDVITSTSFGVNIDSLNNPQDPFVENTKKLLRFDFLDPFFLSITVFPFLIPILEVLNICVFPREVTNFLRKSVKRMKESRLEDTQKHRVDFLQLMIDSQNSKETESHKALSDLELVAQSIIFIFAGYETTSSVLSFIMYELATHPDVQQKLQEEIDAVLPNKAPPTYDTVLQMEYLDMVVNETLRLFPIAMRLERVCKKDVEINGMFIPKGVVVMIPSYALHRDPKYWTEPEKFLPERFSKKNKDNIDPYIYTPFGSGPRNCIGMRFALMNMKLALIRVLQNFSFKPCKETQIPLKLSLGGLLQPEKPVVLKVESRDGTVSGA
CYP2C9, sequence (P11712 whole entry): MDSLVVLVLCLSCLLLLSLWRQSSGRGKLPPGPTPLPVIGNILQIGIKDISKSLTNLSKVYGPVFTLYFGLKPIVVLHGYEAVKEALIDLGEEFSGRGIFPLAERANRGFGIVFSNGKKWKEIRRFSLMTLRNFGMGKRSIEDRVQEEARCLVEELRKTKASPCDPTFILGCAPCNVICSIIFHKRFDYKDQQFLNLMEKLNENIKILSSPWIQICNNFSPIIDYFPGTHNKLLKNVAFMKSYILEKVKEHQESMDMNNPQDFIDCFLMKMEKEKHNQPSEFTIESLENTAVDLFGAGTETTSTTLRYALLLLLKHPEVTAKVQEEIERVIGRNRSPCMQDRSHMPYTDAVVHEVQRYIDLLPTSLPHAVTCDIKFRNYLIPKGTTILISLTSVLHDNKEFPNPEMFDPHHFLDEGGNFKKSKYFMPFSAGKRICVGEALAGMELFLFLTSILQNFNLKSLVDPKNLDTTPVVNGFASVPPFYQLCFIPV
CYP2C19, sequence (P33261 whole entry): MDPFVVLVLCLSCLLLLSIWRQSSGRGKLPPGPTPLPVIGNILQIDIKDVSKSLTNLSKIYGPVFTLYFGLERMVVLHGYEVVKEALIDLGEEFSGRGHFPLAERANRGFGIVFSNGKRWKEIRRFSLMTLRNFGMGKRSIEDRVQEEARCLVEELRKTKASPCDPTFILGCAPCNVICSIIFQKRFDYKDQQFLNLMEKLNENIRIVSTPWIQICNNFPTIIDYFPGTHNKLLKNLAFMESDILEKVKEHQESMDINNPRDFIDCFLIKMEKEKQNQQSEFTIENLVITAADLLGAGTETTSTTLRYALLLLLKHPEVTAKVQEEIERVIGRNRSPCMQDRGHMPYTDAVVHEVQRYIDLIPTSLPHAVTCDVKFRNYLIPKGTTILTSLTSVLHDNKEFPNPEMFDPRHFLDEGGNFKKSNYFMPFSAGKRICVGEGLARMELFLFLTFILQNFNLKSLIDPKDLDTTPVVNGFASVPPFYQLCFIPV
CYP2D6, sequence (P10635 whole entry): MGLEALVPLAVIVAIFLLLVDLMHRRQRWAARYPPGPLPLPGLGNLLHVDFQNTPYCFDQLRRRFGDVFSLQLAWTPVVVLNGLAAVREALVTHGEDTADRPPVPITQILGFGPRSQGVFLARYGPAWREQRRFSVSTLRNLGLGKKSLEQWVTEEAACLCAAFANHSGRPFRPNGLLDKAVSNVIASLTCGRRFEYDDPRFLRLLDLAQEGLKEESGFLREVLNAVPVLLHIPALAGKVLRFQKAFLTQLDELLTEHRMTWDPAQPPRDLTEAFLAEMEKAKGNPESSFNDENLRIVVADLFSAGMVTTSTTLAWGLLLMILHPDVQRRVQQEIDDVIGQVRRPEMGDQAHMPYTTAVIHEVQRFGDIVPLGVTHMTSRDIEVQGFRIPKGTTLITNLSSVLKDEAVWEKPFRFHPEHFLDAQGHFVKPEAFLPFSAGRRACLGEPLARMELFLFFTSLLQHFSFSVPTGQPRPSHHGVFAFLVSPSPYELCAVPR

SMILES: COc1ccc(CCN(Cc2ccc(C(=O)O)cc2)c2nc3ccc(CO)cc3s2)cc1
- Activity (MDA-MB-231 [1]): inactive

SMILES: COc1ccc(CCN(Cc2ccc(C(=O)O)cc2)c2nc3cc([N+](=O)[O-])ccc3o2)cc1
- Activity (MDA-MB-231 [1]): Active

SMILES: COc1ccc(CCN(Cc2ccc(C(=O)O)cc2)c2nc3cc(NC(=O)c4ccc(N5CCN(C)CC5)cc4)ccc3o2)cc1
- Activity (MDA-MB-231 [1]): inactive

SMILES: COc1ccc(CCN(Cc2ccc(C(=O)O)cc2)c2nc3cncnc3s2)cc1
- Activity (MDA-MB-231 [1]): inactive

SMILES: COc1ccc(CCN(Cc2ccc(C(=O)O)cc2)c2nc3cc(F)c(F)c(F)c3s2)cc1
- inhibition at 3 µM (MDA-MB-231 [1]): 28%

SMILES: COc1ccc(CCN(Cc2ccc(C(=O)O)cc2)c2nc3ccc(C(=O)O)cc3s2)cc1
- Activity (MDA-MB-231 [1]): inactive

SMILES: COc1ccc(CCN(Cc2ccc(C(=O)O)cc2)c2nc3cc(Cl)cnc3s2)cc1
- Activity (MDA-MB-231 [1]): inactive

SMILES: COc1ccc(CCN(Cc2ccc(C(=O)O)cc2)c2nc3ccc[n+]([O-])c3s2)cc1
- Activity (MDA-MB-231 [1]): inactive

SMILES: COc1ccc(CCN(Cc2ccc(C(=O)O)cc2)c2nc3cc(NC(=O)Cc4ccc(OC)cc4)ccc3o2)cc1
- Activity (MDA-MB-231 [1]): Active

SMILES: CC(=O)N1CCN(c2ccc(OCC3COC(Cn4ccnc4)(c4ccc(Cl)cc4Cl)O3)cc2)CC1 (centres undefined) [KETOCONAZOLE]
- activity at 10 µM (CYP2C19): > 100%
- activity at 10 µM (CYP2C9): > 100%
- activity at 10 µM (CYP1A2): > 100%
- activity at 10 µM (CYP3A4): 31.8%

- Kd (Lysine--tRNA ligase [2]): 49.2 µM
- EC50 (NCI-H226): 8.5 µM
- Activity (Lysine--tRNA ligase [3]): Active
SMILES: CCC(C(=O)O)n1/c(=N/C(=O)c2cccc(C(F)(F)F)c2)sc2cc(F)c(F)cc21 (centres undefined)

SMILES: COc1ccc(CCN(Cc2ccc(C(=O)O)cc2)c2nc3ncccc3s2)cc1
- Activity (MDA-MB-231 [1]): inactive

- Cmax [4]: 40 ng/mL
- AUC(0-inf) [5]: 192 ng·h/mL
- activity at 10 µM (CYP2C19): 92.2%
- Kd (Lysine--tRNA ligase [2]): 5.75 µM
- activity at 10 µM (CYP2C9): 74.6%
- AUC(0-inf) [6]: 216 ng·h/mL
- activity at 10 µM (CYP1A2): 91.1%
- activity at 10 µM (CYP2D6): 97.9%
- Vd [7]: 149 L/kg
- half-life [8]: 1.56 h
- clearance [9]: 392 mL/min/kg
- AUC(0-t) at 24 h [10]: 168 ng·h/mL
- AUC(0-t) at 24 h [11]: 191 ng·h/mL
- Papp at 4 h, 50 µM [12]: 22.2 ×10⁻⁶ cm/s
- activity at 10 µM (CYP3A4): 98.4%
- bioavailability [13]: 87.9%
- half-life [14]: 6.05 h
- remaining at 0.5 h [15]: 73%
- EC50 (MDA-MB-231 [16]): 0.081 µM
- remaining at 0.5 h [18]: 65.8%
- Activity (Lysine--tRNA ligase [3]): Active
- remaining at 0.5 h [19]: 79.5%
- Tmax [20]: 4.17 h
- remaining at 0.5 h [21]: 62.8%
SMILES: COc1ccc(CCN(Cc2ccc(C(=O)O)cc2)c2nc3cccnc3s2)cc1
- inhibition at 3 µM (MDA-MB-231 [1]): 70%
- Activity (4T1): Active
- Activity [17]: Non-Toxic

SMILES: COc1ccc(CCN(Cc2ccc(C(=O)O)cc2)c2nc3cnccc3s2)cc1
- Activity (MDA-MB-231 [1]): inactive

SMILES: Cc1cc(=O)n(-c2ccccc2)n1C [ANTIPYRINE]
- Papp at 4 h, 50 µM [12]: 1.94 ×10⁻⁶ cm/s

SMILES: COc1ccc(CCN(Cc2ccc(C(=O)O)cc2)c2nc3cccnc3o2)cc1
- Activity (MDA-MB-231 [1]): Active

SMILES: COc1ccc(CCN(Cc2ccc(C(=O)O)cc2)c2nc3cc(F)cc(F)c3[nH]2)cc1
- Activity (MDA-MB-231 [1]): inactive

SMILES: COc1ccc(CCN(Cc2ccc(C(=O)O)cc2)c2nc3ccccc3o2)cc1
- Activity (MDA-MB-231 [1]): Active
